Measurements: ChEMBL document CHEMBL3885881, “DrugMatrix”

Species: Rattus norvegicus
Assay: DrugMatrix - Regimen: Daily Repeat
Format: toxicity, organism-based, Sprague-Dawley
Design: regimen Daily Repeat, gender Male, age 6-8 weeks
Conditions: in vivo, po, route oral GAVAGE, […]; for ABSOLUTE BASOPHIL / ABSOLUTE EOSINOPHIL / BASOPHIL / EOSINOPHIL / NUCLEATED RED BLOOD CELLS / ABSOLUTE LYMPHOCYTE / ABSOLUTE MONOCYTE / ABSOLUTE SEGMENTED NEUTROPHIL / ERYTHROCYTE COUNT / HEMATOCRIT / HEMOGLOBIN / LEUKOCYTE COUNT / LYMPHOCYTE / MEAN CORPUSCULAR HEMOGLOBIN / MEAN CORPUSCULAR HEMOGLOBIN CONCENTRATION / MEAN CORPUSCULAR VOLUME / MONOCYTE / NEUTROPHIL / PLATELET COUNT: tissue Blood; for ALANINE AMINOTRANSFERASE / ALBUMIN / ALKALINE PHOSPHATASE / ASPARTATE AMINOTRANSFERASE / BLOOD UREA NITROGEN / CARBON DIOXIDE / CHLORIDE / CHOLESTEROL / CREATINE PHOSPHOKINASE / CREATININE / GLUCOSE / LACTATE DEHYDROGENASE / LIPASE / PHOSPHORUS / POTASSIUM / SODIUM / TOTAL BILIRUBIN / TOTAL PROTEIN / URIC ACID: tissue Plasma
[1] = 0 mg/kg, 72 h, dose level Control, time 3 day
[2] = 0 mg/kg, 120 h, dose level Control, time 5 day
[3] = 0.08 mg/kg, 72 h, dose level Low, time 3 day
[4] = 0.08 mg/kg, 120 h, dose level Low, time 5 day
[5] = 12 mg/kg, 72 h, dose level M1, time 3 day

## C#C[C@]1(O)CC[C@H]2[C@@H]3CCC4=CC(=O)CC[C@@H]4[C@H]3CC[C@@]21C [NORETHINDRONE]
[1]
  ABSOLUTE BASOPHIL: 0 CELLS/uL
  ABSOLUTE EOSINOPHIL: 14 CELLS/uL
  BASOPHIL: 0%
  EOSINOPHIL: 0.17%
  NUCLEATED RED BLOOD CELLS: 0 /100WBC
[2]
  ABSOLUTE BASOPHIL: 0 CELLS/uL
  BASOPHIL: 0%
[3]
  ABSOLUTE BASOPHIL: 0 CELLS/uL
  ABSOLUTE EOSINOPHIL: 0 CELLS/uL
  ABSOLUTE LYMPHOCYTE: 8095 CELLS/uL
  ABSOLUTE MONOCYTE: 0 CELLS/uL
  ABSOLUTE SEGMENTED NEUTROPHIL: 538.33 CELLS/uL
  BASOPHIL: 0%
  EOSINOPHIL: 0%
  ERYTHROCYTE COUNT: 4.99 x10E6/uL
  HEMATOCRIT: 31.97%
  HEMOGLOBIN: 12.7 G/DL
  LEUKOCYTE COUNT: 8.63 x10E3/uL
  LYMPHOCYTE: 94.33%
  MEAN CORPUSCULAR HEMOGLOBIN: 25.5 pg
  MEAN CORPUSCULAR HEMOGLOBIN CONCENTRATION: 39.77 G/DL
  MEAN CORPUSCULAR VOLUME: 64.07 fL
  MONOCYTE: 0%
  NEUTROPHIL: 5.67%
  NUCLEATED RED BLOOD CELLS: 0 /100WBC
  PLATELET COUNT: 1042.33 x10E3/uL
  ALANINE AMINOTRANSFERASE: 76.33 u/L
  ALBUMIN: 4.1 G/DL
  ALKALINE PHOSPHATASE: 395.67 u/L
  ASPARTATE AMINOTRANSFERASE: 84.33 u/L
  BLOOD UREA NITROGEN: 13 mg/dL
  CARBON DIOXIDE: 28 mmol/L
  CHLORIDE: 101 MEQ/L
  CHOLESTEROL: 81 mg/dL
  CREATINE PHOSPHOKINASE: 236 u/L
  CREATININE: 0.17 mg/dL
  GLUCOSE: 185.33 mg/dL
  LACTATE DEHYDROGENASE: 127 u/L
  LIPASE: 24.67 u/L
  PHOSPHORUS: 9.57 mg/dL
  POTASSIUM: 5.52 MEQ/L
  SODIUM: 144.63 MEQ/L
  TOTAL BILIRUBIN: 0.1 mg/dL
  TOTAL PROTEIN: 5.67 G/DL
  URIC ACID: 0.77 mg/dL
[4]
  ABSOLUTE BASOPHIL: 0 CELLS/uL
  ABSOLUTE EOSINOPHIL: 0 CELLS/uL
  ABSOLUTE LYMPHOCYTE: 11824 CELLS/uL
  ABSOLUTE MONOCYTE: 160 CELLS/uL
  ABSOLUTE SEGMENTED NEUTROPHIL: 1549.33 CELLS/uL
  BASOPHIL: 0%
  EOSINOPHIL: 0%
  ERYTHROCYTE COUNT: 5.24 x10E6/uL
  HEMATOCRIT: 32.97%
  HEMOGLOBIN: 13 G/DL
  LEUKOCYTE COUNT: 13.53 x10E3/uL
  LYMPHOCYTE: 87%
  MEAN CORPUSCULAR HEMOGLOBIN: 24.87 pg
  MEAN CORPUSCULAR HEMOGLOBIN CONCENTRATION: 39.43 G/DL
  MEAN CORPUSCULAR VOLUME: 63.07 fL
  MONOCYTE: 1%
  NEUTROPHIL: 12%
  NUCLEATED RED BLOOD CELLS: 0 /100WBC
  PLATELET COUNT: 1265.67 x10E3/uL
  ALANINE AMINOTRANSFERASE: 76 u/L
  ALBUMIN: 4.27 G/DL
  ALKALINE PHOSPHATASE: 393 u/L
  ASPARTATE AMINOTRANSFERASE: 91.67 u/L
  BLOOD UREA NITROGEN: 10.67 mg/dL
  CARBON DIOXIDE: 30 mmol/L
  CHLORIDE: 98 MEQ/L
  CHOLESTEROL: 68 mg/dL
  CREATINE PHOSPHOKINASE: 173 u/L
  CREATININE: 0.12 mg/dL
  GLUCOSE: 150.67 mg/dL
  LACTATE DEHYDROGENASE: 80.33 u/L
  LIPASE: 33.67 u/L
  PHOSPHORUS: 9.53 mg/dL
  POTASSIUM: 5.88 MEQ/L
  SODIUM: 144.2 MEQ/L
  TOTAL BILIRUBIN: 0.1 mg/dL
  TOTAL PROTEIN: 5.83 G/DL
  URIC ACID: 0.63 mg/dL
[5]
  ABSOLUTE BASOPHIL: 0 CELLS/uL
  ABSOLUTE EOSINOPHIL: 0 CELLS/uL
  ABSOLUTE LYMPHOCYTE: 6372.33 CELLS/uL
  ABSOLUTE MONOCYTE: 130.67 CELLS/uL
  ABSOLUTE SEGMENTED NEUTROPHIL: 463.67 CELLS/uL
  BASOPHIL: 0%
  EOSINOPHIL: 0%
  ERYTHROCYTE COUNT: 5.18 x10E6/uL
  HEMATOCRIT: 32.47%
  HEMOGLOBIN: 12.27 G/DL
  LEUKOCYTE COUNT: 6.97 x10E3/uL
  LYMPHOCYTE: 90.33%
  MEAN CORPUSCULAR HEMOGLOBIN: 23.7 pg
  MEAN CORPUSCULAR HEMOGLOBIN CONCENTRATION: 37.8 G/DL
  MEAN CORPUSCULAR VOLUME: 62.77 fL
  MONOCYTE: 1.67%
  NEUTROPHIL: 8%
  NUCLEATED RED BLOOD CELLS: 0 /100WBC
  PLATELET COUNT: 1187.33 x10E3/uL
  ALANINE AMINOTRANSFERASE: 50 u/L
  ALBUMIN: 4.47 G/DL
  ALKALINE PHOSPHATASE: 371.33 u/L
  ASPARTATE AMINOTRANSFERASE: 87.67 u/L
  BLOOD UREA NITROGEN: 11.33 mg/dL
  CARBON DIOXIDE: 34 mmol/L
  CHLORIDE: 101.67 MEQ/L
  CHOLESTEROL: 32.67 mg/dL
  CREATINE PHOSPHOKINASE: 431.33 u/L
  CREATININE: 0.19 mg/dL
  GLUCOSE: 136.67 mg/dL
  LACTATE DEHYDROGENASE: 119.33 u/L
  LIPASE: 8.67 u/L
  PHOSPHORUS: 11.1 mg/dL
  POTASSIUM: 5.95 MEQ/L
